From patent publication EP0497921B1, “METHOD FOR INHIBITING ENZYMATIC SYNTHESIS OF NUCLEIC ACIDS USING ISOPSORALENS” (ISAACS, Stephen T., priority 1989, dated 1991)

What was measured:
calf thymus DNA = test: Covalent photobinding of tritiated isopsoralens (scintillation counting); format: binding; conditions: for actual concentrations obtained empirically: nominal concentration of 100 µg/ml in calf thymus DNA / 1 x TE, counted after sitting overnight at room temperature
Experimental: Figure 17 can again be referred to as a flow chart schematically showing the manner in which covalent binding was measured for the compounds synthesized by the methods of the present invention. ^3H-AMIP (3.1 x 10^5 cpm/µg), ^3H-AMDMIP (2.2 x 10^5 cpm/µg), and ^3H-MIP (2.1 x 10^5 cpm/µg) were added to 300 µl of calf thymus DNA (Sigma) in 1 x TE buffer. All of the isopsoralen compounds were added at a nominal concentration of 100 µg/ml. However, actual concentrations obtained empirically (counted after sitting overnight at room temperature) were: ^3H-AMIP (105 µg/ml), ^3H-AMDMIP (115 µg/ml), and ^3H-MIP ([…]).
To assess binding, three samples were prepared for each compound; two were irradiated (15 minutes at 25°C with the CE-I device) while one was unirradiated as a control. Following irradiation, the samples were extracted four times with CHCl3 then precipitated twice. The final pellet was brought up in 1 ml of 1 x TE buffer and resuspended by shaking at 40°C overnight. 50 µl of each sample was then diluted to 0.5 mls with H20. The concentration of DNA was determined by UV absorption (A260) and the amount of covalently bound isopsoralen ("adduct") was determined by scintillation counting (3 x 100 µl aliquots). From these numbers, the following binding ratios (adducts: DNA base pair) were determined: […]

Taq polymerase = Taq polymerase (Thermus aquaticus, UniProt P19821); test: Primer extension on 71-mer after random addition of compound or addition of photoproduct; format: biochemical; conditions: for extension products, irradiated samples: 71-mer irradiated 15 minutes on CE-I at 25°C with AMIP (200 µg/ml), AMDMIP (200 µg/ml) or MIP (60 µg/ml), extension 5 minutes at 55°C
Taq polymerase, sequence (P19821 whole entry): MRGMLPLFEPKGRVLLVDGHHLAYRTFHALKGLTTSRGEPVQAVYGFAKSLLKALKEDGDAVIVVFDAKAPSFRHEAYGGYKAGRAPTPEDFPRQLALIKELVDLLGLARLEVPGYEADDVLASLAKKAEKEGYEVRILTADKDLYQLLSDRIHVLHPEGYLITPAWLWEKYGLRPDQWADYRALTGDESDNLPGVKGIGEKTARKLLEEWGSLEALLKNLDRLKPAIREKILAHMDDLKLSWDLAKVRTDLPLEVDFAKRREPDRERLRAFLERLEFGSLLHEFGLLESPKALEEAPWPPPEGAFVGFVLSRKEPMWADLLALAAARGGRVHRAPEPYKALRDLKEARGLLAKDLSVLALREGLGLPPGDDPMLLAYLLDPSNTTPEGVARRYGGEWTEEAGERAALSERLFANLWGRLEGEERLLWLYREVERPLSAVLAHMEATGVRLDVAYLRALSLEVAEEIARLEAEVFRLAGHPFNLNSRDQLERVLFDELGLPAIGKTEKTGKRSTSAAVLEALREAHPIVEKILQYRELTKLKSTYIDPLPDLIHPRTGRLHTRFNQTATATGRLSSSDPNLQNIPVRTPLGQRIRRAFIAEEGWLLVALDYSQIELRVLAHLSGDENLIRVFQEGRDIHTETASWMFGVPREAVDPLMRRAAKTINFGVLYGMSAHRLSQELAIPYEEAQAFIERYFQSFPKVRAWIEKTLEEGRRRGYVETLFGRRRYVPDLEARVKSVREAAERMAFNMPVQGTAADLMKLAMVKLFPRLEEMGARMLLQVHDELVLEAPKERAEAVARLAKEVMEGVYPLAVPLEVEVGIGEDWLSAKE
Excerpt: In this experiment, the ability of AMIP, AMDMIP and MIP to block replication of 71-mer is investigated by randomly adding each compound to the 71-mer. of course, addition may only be random in the sense that one or more adducts may be formed with any one strand of nucleic acid. The actual placement of the isopsoralen may be governed by preferential binding at particular sites (e.g. A:T). In addition to blockage by random adducts, photoproducts of the various isopsoralens may be providing an inhibitory effect. No attempt to separate the effects of photoproduct from the effects of covalent adducts on the 71-mer template was made in this series of experiments.
In these experiments, the 71-mer template (10^-9 M) was primed with ^32P-SK-39 (10^-8) and extended with Taq polymerase in a total volume of 20 µl. The dNTP concentration was 200 µM. In the control samples, the 71-mer, the primer, and the dNTPs were mixed in Taq buffer in a volume of 18 µl. These samples were initially denatured at 95°C for 5 minutes, followed by equilibration at 550C for 3 minutes. Taq enzyme was then added (0.5 units) and the extension reaction was carried out for 5 minutes at 55°C. The reaction was stopped by making the solution 10 mM in EDTA. In another set of samples, the 71-mer in 10 µl was mixed with either AMIP (200 µg/ml), AMDMIP (200 µg/ml), or MIP (60 µg/ml). Half of these samples were irradiated for 15 minutes on the CE-I device at 25°C. The other half was kept in the dark as controls. These samples were then mixed with the primer and dNTPs as before, and were subjected to the same thermal profile and extension reactions as the samples that were described earlier. The results were examined by PAGE. The extended product bands were identified by autoradiography, excised and counted (data not shown).
In this experiment, the ability of two different Phenylazide derivatives (see Table 1), photobiotin (Vector Labs) and monoazide ethidium chloride, to block replication of 71-mer was investigated by randomly adding each compound to the 71-mer. Again, addition may only be random in the sense that one or more adducts may be formed with any one strand of nucleic acid. The actual placement of these compounds may be governed by preferential binding at particular sites (e.g. A:T). In addition to blockage by random adducts, there may be inhibition by photoproducts. As in Example 23, no attempt was made to separate the impact of photoproducts from that of covalent binding of photoreactive compound on the 71-mer.
The two compounds, photobiotin and monoazide ethidium chloride, have different spectral characteristics. To activate these compounds, two different wavelength regions were selected using a single light source (General Electric Sunlamp, Model RSM, 275 watt). The light source was positioned 10 cm above uncapped Eppendorph tubes which contained samples to be irradiated. The samples were kept on ice during irradiation. A pyrex dish was placed between the lamp and the samples.
For samples containing photobiotin, 2.5 cm of water was added to the pyrex dish to help remove some of the infrared radiation. The samples were irradiated for 15 minutes.
For samples containing monoazide ethidium chloride, wavelengths less than 400 nm were filtered out by using 2.5 cm of an aqueous solution of 2.9 M NaNO2. Removal of short wavelengths (i.e. wavelengths shorter than 400 nm) is necessary for the use of monoazide ethidium chloride. Irradiation of this compound with shorter wavelengths results in conversion to non-active forms (data not shown). Wavelengths below 400 nm are therefore undesirable for use with this compound.
In this experiment, the 71-mer template (2 x 10^-9 M) in 10 µl was mixed with either no photoreactive compound, photobiotin (6 x 10^-6 M), or monoazide ethidium (1.4 x 10^-3 M). Half of each of these samples were irradiated on ice for 15 minutes with wavelengths appropriate for each specific photoreactive compound. […]

Compound | actual concentrations obtained empirically (calf thymus DNA) [µg/mL] | modification density relative to that provided by AMDMIP (calf thymus DNA; photobinding at the same concentration) [%] | extension products, irradiated samples (Taq polymerase) | extension products, 71-mer irradiated in the presence of AMDMIP (Taq polymerase; 200 µg/ml AMDMIP, CE-I device at 25°C) | extension products, dark controls (Taq polymerase; unirradiated AMDMIP added to unirradiated 71-mer) | amount of full length product relative to the control samples (Taq polymerase; irradiated MIP (60 µg/ml))
5-Aminomethylisopsoralen [AMIP] | 105 | 43 | not extended at all |  |  | 
4'-Aminomethyl-4,5'-dimethylisopsoralen [AMDMIP] | 115 |  | not extended at all | no extension products at all | full length extension product | 
Cc1cc2occc2c2oc(=O)ccc12 [MIP, 5-Methylisopsoralen] | < 10 |  | some full length extension product and a minor truncated product |  |  | half
